A short description of data set [1]: Solubility levels of various agents in water. The note with it: for Extent (of solubility): US Pharmacopea scale, part of solvent per part of solute; for Part H20/part solute / Solubility in Water: water; for Solubility in Water: from mg/L and MW.
Excerpt: (§1) According to US Pharmacopea standards, the scale of solubility (part of solvent per part of solute) is as follows:
A further data set in a line: physchem. To be noted: water.
For data set [2] the following is noted: cited from earlier work.

≈ marks a conversion by molar mass, not a printed value. Structures can show the parent of a compound that is named as a salt. Where two headings read alike, the source gives them in different places.

The values that follow come from patent US11103684B2, “Systems, devices, and methods for treating a pulmonary disorder with an agent” (Holaira, Inc., priority 2013, dated 2021).

The solubility is the dissolved amount per volume that the medium holds. A low value points to a poorly soluble substance.

Excerpt for physchem: as §1

Take `CCCCN1CCCCC1C(=O)Nc1c(C)cccc1C` (centres unmarked) [Bupivicaine]: in data set [1], the “Extent (of solubility)” value is reported as “very slightly soluble (1000 to 10000)”, the “Part H20/part solute” value is 6720 and the “Solubility in Water” value amounted to 8.333 mM (≈ 2400 µg/mL).

As to `[N]=O` [Nitric Oxide], the solubility in the data set “physchem” was 2.85 mM (≈ 85.4 µg/mL).

In “physchem” (Solubility in Water (mol/L)), `CCN(CC)CCNC(=O)c1ccc(N)cc1` [Procainamide] yielded a solubility of 18.6 mM (≈ 4390 µg/mL).

For the molecule `CCCN1CCCC[C@H]1C(=O)Nc1c(C)cccc1C` [Ropivacaine HCL], the “Solubility in Water” value in data set [2] (HCL) is 53.8 mg/mL. For the same molecule, in data set [1] (HCL), the “Extent (of solubility)” value is “slightly soluble (100 to 1000)”, the “Part H20/part solute” value was 342.5 and the “Solubility in Water” value came to 163.5 mM.

On to `CCCN1CCCC[C@H]1C(=O)Nc1c(C)cccc1C` [Ropivacaine], for which the “Solubility in Water” value in data set [2] was 0.0576 mg/mL (≈ 210 µM). In addition, in data set [1], the “Extent (of solubility)” value is recorded as “insoluble (>10000)”, the “Part H20/part solute” value is 266388.8889 and the “Solubility in Water” value was 0.2102 mM (≈ 57.7 µg/mL).

Molecule `Cc1cccc(C)c1NC(=O)C(C)N` (centres unmarked) [Tocainide] gave a solubility in “physchem” (Solubility in Water (mol/L)) of 55.7 mM (≈ 10700 µg/mL). This counts as millimolar.
